Legend:
[1] = system: NRF2/KEAP1 mutant NSCLC cell lines; experiment: ROS after GLS inhibitors; assay type: cell-based
Method: One day prior to the experiment, A549 cells were seeded in 6 well dishes (250,000 cells per well). The day of the experiment, cells were treated with 0.01% DMSO or 1 μM IACS-011393 for 24 hours. The following day, an allocated well was treated with hydrogen peroxide for 20-30 minutes as a positive control for ROS generation. All wells were then stained with CM-H2DCFDA (5 μM, Life Technologies) for 30 minutes at 37° C., washed with 1× PBS, harvested by trypsinization, and re-suspended in 400 μl phenol-free RPMI medium. Cells were strained through a […] cell strainer and analyzed using a flow cytometer (LSR Fortessa).

[2] = system: NRF2/KEAP1 mutant NSCLC cell lines; experiment: Glutathione level after GLS inhibitors; assay type: cell-based
Method: Cells were allowed to settle and attach overnight. Cells plated in triplicate for each concentration and control examined. […] Cells were incubated with compound or relevant controls for 24 hours. On Day 2, 24 hours after treatment, cells were analyzed by GSH-Glo (PromegaV6912) per manufacturer's instructions. Plates were read in luminescence mode on a PheraStarFS plate reader. Duplicate wells were plated and then stained with crystal violet in order to correct for differences in cell growth as described below.

## O=C(Cc1ccccn1)Nc1nnc(CCS(=O)(=O)CCc2nnc(NC(=O)Cc3ccccn3)s2)s1 [compound 13, N,N′-(5,5′-(2,2′-sulfonylbis(ethane-2,1-diyl))bis(1,3,4-thiadiazole-5,2-diyl))bis(2-(pyridin-2-yl)acetamide)]
[1]
  ROS: increase in ROS
[2]
  glutathione: reduction in glutathione

## O=C(Cc1ccccc1)Nc1nnc(CCSCCc2nnc(NC(=O)Cc3ccccc3)s2)s1 [BPTES, N,N′-(5,5′-(2,2′-thiobis(ethane-2,1-diyl))bis(1,3,4-thiadiazole-5,2-diyl))bis(2-phenylacetamide)]
[1]
  ROS: increase in ROS
[2]
  glutathione: reduction in glutathione

## O=C(Cc1cccc(OC(F)(F)F)c1)Nc1ccc(CCCCc2nnc(NC(=O)Cc3ccccn3)s2)nn1 [CB-839, 2-(pyridin-2-yl)-N-{5-[4-(6-{2-[3-(trifluoromethoxy)phenyl]acetamido}pyridazin-3-yl)butyl]-1,3,4-thiadiazol-2-yl}acetamide]
[1]
  ROS: increase in ROS
[2]
  glutathione: reduction in glutathione
